Assay results taken from patent EP4380555B1, “COMPOSITION COMPRISING D-MANNOSE, N-ACETYLCYSTEINE AND PALMITOYLETHANOLAMIDE AND ITS USE FOR THE TREATMENT OF URIRNARY TRACT INFECTIONS” (Agave S.r.l., priority 2021, dated 2023).

Columns and labels:
[1] = test system: Enterococcus Faecium DSM 20477; assay: MBIC test of composition versus its components, crystal violet absorbency at 595 nm; type: cell-based; conditions: E. faecium MBIC
Procedure: (§1) The composition of Example 1 was tested to assess the capacity to inhibit the formation of biofilm shown by the following microorganisms: • Klebsiella Pneumoniae DSM 30104 • Enterococcus Faecium DSM 20477
(§2) The bacteria stated above were revived from the working cell bank, stored at -80°C, for each experiment conducted.
(§3) The tests were conducted on the following formulations: • Mannose 3000 mg + NAC 600 mg + PEA 600 mg (i.e. composition Example 1) • Mannose 3000 mg + NAC 600 mg • PEA 600 mg
(§4) The three formulations were dissolved at 100 gr/l in sterile TSB/TSYEM medium and then utilised to perform the MBIC test as follows.
(§5) MBIC 48-well plates were utilised for the determination. 800 µL sample, prepared at a concentration of 2x with respect to the maximum concentration being tested, was dispensed into the first well and 400 µL medium was added to the subsequent wells, performing serial dilutions of 1:2 up to the 8th well. Finally, 400 µL of each microorganism at a concentration of 10^5 was inoculated into each well. The multiwell plates were incubated at 37°C for 24 hours and then the supernatant present was removed, together with the planktonic bacteria not attached to the plate.
(§6) The biofilm was then washed 3 times with sterile deionised water and subsequently the cells were fixed by means of incubation at 60°C for 2 hours, before being stained with crystal violet. The crystal violet staining was performed to assess the effect of the product and the components thereof on the biofilm formation. 200 µL of 0.02% crystal violet dissolve in deionised water was dispensed into each well and, after 5 minutes of incubation at room temperature, each well was finally washed three times with sterile deionised water. The biofilm inhibition activity was viewed by microscopic observation under stereomicroscope.
(§7) At the end of the microscopic observation of the condition of the biofilm by staining, the stain fixed to the biofilm treated was extracted utilising 100% methanol for 5 minutes at room temperature. The methanolic extract thus obtained was analysed under spectrophotometer to measure the absorbency at 595 nm. As the solution stain intensity obtained is proportional to the biofilm remaining, absorbency is a quantitative parameter which can be used to measure the amount of biofilm. Absorbency was therefore utilised to determine the biofilm decrease percentage by comparing the data obtained following treatments against the untreated biofilm control.

[2] = test system: Klebsiella Pneumoniae DSM 30104; assay: as above; type: cell-based; conditions: MBIC K. pneumoniae
Procedure: as §1, §2, §3, §4, §5, §6, §7

Enterococcus faecium [3] = assay: MBEC test of composition versus its components, 24 h preformed biofilm, crystal violet; type: cell-based; conditions: MBEC E. faecium
Procedure: To determine the minimum biofilm eradication concentration, 48-well plates were utilised. The microorganisms were incubated for 24 h at 37°C to allow the formation of the biofilm. Once formed, the biofilms were treated with the composition in Example 1 and the respective components (as per Example 17) to eradicate the biofilm. In particular, after the formation of the biofilm, the supernatant was suctioned and replaced with solutions containing decreasing concentrations of the product. The plates thus prepared were incubated for 24 h at 37°C. At the end of the incubation time, the supernatant present in each well was removed, together with the bacteria that was not attached to the plate and following the washes with sterile deionised water the plates were incubated at 60°C for 2 hours to fix the cells before the staining with crystal violet. The crystal violet staining was performed to assess the effect of the product and of the components thereof on the removal of the biofilm. 200 µL of crystal violet dissolved in deionised water at a concentration of 0.02% was dispensed into each well and, after 5 minutes of incubation at room temperature, each well was washed three times with sterile deionised water. The biofilm eradication activity was viewed under microscopic observation.

IL-8 = assay: Anti-inflammatory activity: IL-8 production induced by TNFα, ELISA; type: cell-based, human; conditions: 0.2 µg/mL TNFα, 6 hours
From the text: We assessed the capacity of the product Comp. 1 in Example 10 to inhibit or reduce the inflammatory state induced, in the same cells as in the previous example, by pro-inflammatory cytokine TNFα. This treatment led to the production of interleukin 8 (IL-8), which is cause of the "recruitment" of white blood cells to the site of inflammation. The IL-8 levels are directly proportional to the intensity of said inflammation.
The 6 product concentrations utilised in the anti-inflammatory test were chosen based on the cell viability test results. […] This is because the product per se leads to the reduction, and therefore the staining, of the MTT.
We first determined the optimal amount of TNFα to perform the test. […] The treatment was performed at 37°C and 5% CO2 for a total of 6 hours; aliquots of 200 µL of the growth medium were taken at the start of the treatment (T0) and after 1, 2, 4 and 6 hours, and then analysed by ELISA test. […]
Anti-inflammatory drug dexamethasone (dex) at a concentration of 0.1 mg/mL was utilised as a positive control. The treatment was performed for 6 hours, at the end of which as aliquots of 200 µL of the growth medium were taken and then analysed by ELISA test. […] The quantification was performed by setting up a calibration curve with different concentrations of a standard IL-8 solution, supplied with the kit. […]

[4] = test system: Escherichia coli (DSM 1576); assay: MIC determination by broth dilution (CLSI M07), 96-well plates; type: cell-based; conditions: E. coli; range tested: Comp. 1 100-0.05 g/L, D-mannose 65-0.03 g/L; 24 h
Procedure: (§8) The antimicrobial activity of the product Comp. 1 in Example 10 was tested in vitro according to method CLSI M07 "Methods for dilution Antimicrobial susceptibility tests for bacteria that grow aerobically".
(§9) For this purpose, the MIC (Minimum Inhibitory Concentration) values were determined with respect to the main microorganisms responsible for urinary tract infections.
(§10) More specifically, the microorganisms utilised were: Escherichia coli (DSM 1576), Klebsiella pneumoniae (DSM 30104), and Enterococcus faecalis(DSM 20477).
(§11) For each experiment conducted, the bacteria stated above were revived from a cell bank stored at -80°C. […]
(§12) The assay to determine the MIC was conducted in 96-well plates testing 12 concentrations (serial dilutions) of each sample. 200 µL of the sample, prepared at a concentration of 2x with respect to the maximum concentration being tested, was dispensed into the first well and 100 µL medium was added to the subsequent wells, performing serial dilutions of 1:2 up to 12th well. Finally, 100 µL of each microorganism at a concentration of 10^5 was inoculated into each well.
(§13) Two antibiotics were used as controls: Fosfomycin (Sigma) and Ceftriaxone (Sigma) at different final concentrations based on the microorganism utilised; both the antibiotics were dissolved in sterile water and then filtered with 0.22 µm filters.
(§14) Growth was tested and the sterility of the medium and of the product was tested. The antimicrobial activity of the D-mannose was also assessed individually. The plates thus prepared were incubated at 37°C for 24h and the results were then observed (Figure 1). The final concentrations tested for each product analysed are stated in Table 2.

[5] = test system: Klebsiella pneumoniae (DSM 30104); assay: as above; type: cell-based; conditions: K. pneumoniae; range tested: Comp. 1 100-0.05 g/L, D-mannose 65-0.03 g/L; 24 h
Procedure: as §8, §9, §10, §11, §12, §13, §14

Enterococcus faecium [6] = assay: as above; type: cell-based; conditions: E. faecium; range tested: Comp. 1 100-0.05 g/L, D-mannose 65-0.03 g/L; 24 h
Enterococcus faecium [7] = assay: MBIC, comparison with D-mannose, crystal violet staining; type: cell-based
Procedure: (§15) To determine the MBIC with the product Comp. 1 in Example 10 with respect to the D-mannose, 48-well plates were utilised. 200 µL of the product Comp. 1, prepared at a concentration of 2x with respect to the maximum concentration being tested, was dispensed into the first well and […] was added to the subsequent wells, performing serial dilutions of 1:2 up to the 8th well. Finally, 200 µL of each microorganism, at a concentration of 10^5, was inoculated into each well. The biofilm inhibition activity of the D-mannose at the same concentration as that present in the product Comp. 1 was also assessed. The multiwell plates were incubated at 37°C for 24 hours and then the supernatant present was removed, together with the planktonic bacteria not attached to the plate. The biofilm was then washed 3 times with PBS and subsequently the cells were fixed by means of incubation at 60°C for 2 hours, before being stained with crystal violet. 100 µL crystal violet dissolved in deionised water was dispensed into each well and, after 5 minutes of incubation at room temperature, each well was finally washed three times with PBS 1x. The biofilm inhibition activity was viewed by microscopic observation under stereomicroscope and optical microscope using the phase-contrast method. The final concentrations tested for each compound are stated in Table 6. Table 6 [table]

Escherichia coli = assay: as above; type: cell-based
Procedure: as §15

Klebsiella pneumoniae = assay: as above; type: cell-based
Procedure: as §15

Question: For CCCCCCCCCCCCCCCC(=O)NCCO [PEA, palmitoylethanolamide], which “Abs 595 nm” value ([1]; 3.13 g/L product of Example 1, components at the same concentration as in the composition, untreated biofilm 0.318) is on record?
Answer: 0.304

Question: And the “% decrease” value ([1]; treated versus untreated biofilm, 3.13 g/L product of Example 1)?
Answer: 4%

Question: What about the “Abs 595 nm” value ([2]; 1.56 g/L product of Example 1, components at the same concentration as in the composition, untreated biofilm 0.176) of the same compound?
Answer: 0.129

Question: What about the “% decrease” value ([2]; treated versus untreated biofilm, 1.56 g/L product of Example 1) of the same compound?
Answer: 26.70%

Question: What about the “Abs 595 nm” value (Enterococcus faecium [3]; 24 h biofilm, 24 h treatment, untreated biofilm 2.09) of the same compound?
Answer: 2.098

Question: What about the “% decrease” value (Enterococcus faecium [3]; treated versus untreated biofilm) of the same compound?
Answer: 0%

Question: How did the “concentration of IL-8 with respect to the cells treated solely with TNFα” value (IL-8; Dex 0.1 mg/mL, TNFα alone = 100) turn out when C[C@@H]1C[C@H]2[C@@H]3CCC4=CC(=O)C=C[C@]4(C)[C@@]3(F)[C@@H](O)C[C@]2(C)[C@@]1(O)C(=O)CO [Dex, dexamethasone] was run?
Answer: 69%

Question: What about the “IL-8 produced less than that produced by the cells treated solely with TNFα” value (IL-8; Dexamethasone 0.1 mg/mL) of the same compound?
Answer: 31%

Question: Which results are given for O=C[C@@H](O)[C@@H](O)[C@H](O)[C@H](O)CO [D-mannose]?
Answer: antimicrobial activity [4]: did not demonstrate any antimicrobial activity; antimicrobial activity [5]: did not demonstrate any antimicrobial activity; antimicrobial activity (Enterococcus faecium [6]): did not demonstrate any antimicrobial activity; concentration of the mannose alone needed for the same efficaciousness as Comp. 1 (Enterococcus faecium [7]; E. faecium biofilm): approximately 10 times; concentration with evident activity on the biofilm (Enterococcus faecium [7]; E. faecium, 24 h): 65 g/L; concentration of the mannose alone needed for the same efficaciousness as Comp. 1 (Escherichia coli; E. coli biofilm): approximately 2.5 times; concentration active on biofilm formation (Escherichia coli; E. coli, 24 h): 32.5 g/L; concentration of the mannose alone needed for the same efficaciousness as Comp. 1 (Klebsiella pneumoniae; K pneumoniae biofilm): approximately 10 times; concentration active on biofilm formation (Klebsiella pneumoniae; K. pneumoniae, 24 h): 8.13 g/L
